The values below come from PMC8880564, “Design, Synthesis, and Biological Evaluation of a Novel VEGFR-2 Inhibitor Based on a 1,2,5-Oxadiazole-2-Oxide Scaffold with MAPK Signaling Pathway Inhibition” (Pharmaceuticals, 2022).

In one test the test system is cancer cells. Description: MTT anti-proliferative test of des-NO-releasing compounds. Format: cell-based, human. To be noted: at concentrations as high as 50 µM. As for the experimental part:
(§1) In addition, the morphological changes in 12b-treated cancer cell lines at concentrations of 6.25 and 12.50 µM are shown in Figure 6.
(§2) According to the procedures of Skehan et al. (with minor modifications), the cancer or normal cells were seeded in a 96-well plate (100 µL/well). After overnight incubation at 37 °C and 5% CO2, the cells were incubated with 50 µM of each tested compound or DMSO (0.5% v/v). After 48 h of incubation, MTT (3-(4,5-dimethylthiazoyl)-2,5-diphenyl-tetrazolium bromide) 5 mg/mL Phosphate-Buffered Saline (PBS) was added, and the plate was incubated for 4 h. After that, acidified sodium dodecyl sulfate (SDS) solution (10% SDS containing 0.01N HCl in 1× PBS) was used to solubilize formazan crystals. The absorbance was measured after 14 h of incubation at λ570–630 nm by a Biotek plate reader (Gen5™).

The subject of another test is HepG2. Description: MTT cell viability assay. The class given is cell-based. To be noted: Homo sapiens, Liver, 48 h, ± SD of triplicates. As for the experimental part:
as §1, §2

Another test deals with HT-29. Put plainly: MTT cell viability assay. To be noted: Homo sapiens, Colon, 48 h, ± SD of triplicates. The class given is cell-based. Here is the method:
as §1, §2

The next test concerns MDA-MB-231. Description: MTT cell viability assay. Format: cell-based. The following applies: Homo sapiens, Breast, 48 h, ± SD of triplicates. As for the experimental part:
as §1, §2

In a further test the test system is MCF-7. Put plainly: MTT cell viability assay. Format: cell-based. The following applies: Homo sapiens, MCF7, Breast, 48 h, ± SD of triplicates. Here is the method:
as §1, §2

The subject of another test is SKOV-3. Put plainly: MTT cell viability assay. The class given is cell-based. The following applies: Homo sapiens, SK-OV-3, Ovarian, 48 h, ± SD of triplicates. As for the experimental part:
as §1, §2

The next test has as its system A2780CP. Description: MTT cell viability assay. Format: cell-based. To be noted: Homo sapiens, A2780C/P, Ovarian, 48 h, ± SD of triplicates. Here is the method: as §1, §2
A further test concerns A2780. Put plainly: MTT cell viability assay. The class given is cell-based. To be noted: Homo sapiens, Ovarian, 48 h, ± SD of triplicates. Here is the method: as §1, §2

Take `Nc1ccc(Nc2nc(C(F)(F)F)nc3c2cnn3-c2ccc(Br)cc2)cc1` [15a, N1-(1-(4-bromophenyl)-6-(trifluoromethyl)-1H-pyrazolo[3,4-d]pyrimidin-4-yl)benzene-1,4-diamine]: the “inhibition of the proliferation of cancer cells” value in the test with cancer cells is recorded as “did not inhibit the proliferation of cancer cells”.
As for `CNC(=O)c1cc(Oc2ccc(NC(=O)Nc3ccc(Cl)c(C(F)(F)F)c3)cc2)ccn1` [Sorafenib, sorafenib, reference compound], the IC50 in the test with HepG2 stood at 14 ± 0.4 µM; in the test on HT-29, 11 ± 0.2 µM; in the test with MDA-MB-231 it was 16.6 ± 0.3 µM; with MCF-7, 5.1 ± 0.4 µM; in the test on SKOV-3, 16.9 ± 0.2 µM; with A2780CP, 15.2 ± 0.1 µM. This molecule also returned an IC50 in the test with A2780 of 10.5 ± 0.5 µM.
Regarding `Cc1nn(-c2ccc(Br)cc2)c2nc(C(F)(F)F)nc(Nc3ccc(N)cc3)c12` [15b, N1-(1-(4-bromophenyl)-3-methyl-6-(trifluoromethyl)-1H-pyrazolo[3,4-d]pyrimidin-4-yl)benzene-1,4-diamine], the “inhibition of the proliferation of cancer cells” value with cancer cells is on record as “did not inhibit the proliferation of cancer cells”.
